“And” between values parts separate entries of the source, which are not always exact repeats. Identical values can stand only once.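 Test compounds were applied to cells in 96-well plates for 48 hours at 5 doses. Abbreviation: GI50, concentration required for 50% inhibition of growth. TGI marks complete inhibition of growth.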
Assays:
Test in all cases: NCI-60 cell line screen, 48 h
[1] = tested on: SN12C renal
[2] = tested on: HOP-62 NSCLC
[3] = tested on: OVCAR-4 ovarian
[4] = tested on: SK-MEL-2 melanoma
[5] = tested on: KM12 colon
[6] = tested on: SNB-75 CNS
[7] = tested on: HCT-15 colon
[8] = tested on: SNB-19 CNS
[9] = tested on: SW-620 colon
[10] = tested on: T-47D breast

CC(=O)OC1C(=O)C(O)C(C)OC1O[C@@H]1C[C@@]2(C)[C@@H]3CC=C4[C@@H](C[C@H](O)C(=O)C4(C)C)[C@]3(C)C(=O)C[C@]2(C)[C@H]1[C@@](C)(O)C(=O)/C=C/C(C)(C)O (stereo not given in full)
TGI [1]: > 10 µM | TGI [2]: 5.42 µM | TGI [3]: 5.51 µM | GI50 [4]: 0.055 µM | TGI [5]: > 10 µM | TGI [6]: 1.47 µM | TGI [7]: > 9.45 µM | TGI [8]: 4.56 µM | TGI [9]: 9.85 µM

CCCN(CCCCC(NC(C)=O)C(=O)NCc1ccccc1)C(=O)NCCCl (stereo not given)
TGI [1]: > 100 µM | TGI [2]: > 100 µM | TGI [3]: > 100 µM | TGI [5]: > 100 µM | TGI [6]: > 100 µM | TGI [7]: > 100 µM | TGI [8]: > 100 µM | TGI [9]: > 100 µM

Cc1ccc(NC(=O)CC2C(=O)Nc3ccccc3S2=O)cc1C (stereo not given)
TGI [1]: > 100 µM | TGI [3]: 34.3 µM | TGI [4]: > 100 µM | TGI [6]: > 100 µM | TGI [7]: > 100 µM | TGI [8]: > 100 µM | TGI [9]: > 100 µM

Cc1cn(C2CC(F)C(CO)O2)c(=O)[nH]c1=O (stereo not given)
GI50 [10]: > 100 µM | TGI [10]: > 100 µM | GI50 [1]: > 100 µM | TGI [1]: > 100 µM | GI50 [2]: > 100 µM | TGI [2]: > 100 µM | GI50 [3]: > 100 µM | TGI [3]: > 100 µM | GI50 [4]: > 100 µM | TGI [4]: > 100 µM | GI50 [5]: > 100 µM | TGI [5]: > 100 µM | GI50 [7]: > 100 µM | TGI [7]: > 100 µM

CC1OC(n2ncc(=O)[nH]c2=O)C=CC1=O (stereo not given)
TGI [1]: > 100 µM | GI50 [2]: > 100 µM and 42.1 µM | TGI [2]: > 100 µM | TGI [3]: > 100 µM | GI50 [4]: > 100 µM and 49.2 µM | TGI [4]: > 100 µM | TGI [5]: > 100 µM | TGI [6]: > 100 µM | GI50 [7]: 90.5 µM and 34.6 µM | TGI [7]: > 100 µM | GI50 [8]: > 100 µM and 35.1 µM | TGI [8]: > 100 µM | GI50 [9]: > 100 µM and 44.1 µM | TGI [9]: > 100 µM

CC(CN(CP(=O)([O-])[O-])CP(=O)([O-])[O-])N(CP(=O)([O-])[O-])CP(=O)([O-])[O-].N.N.[Pt+2] (stereo not given)
GI50 [1]: > 100 µM | TGI [1]: > 100 µM | GI50 [2]: > 100 µM | TGI [2]: > 100 µM | GI50 [3]: > 100 µM | TGI [3]: > 100 µM | GI50 [4]: > 100 µM | TGI [4]: > 100 µM | GI50 [5]: > 100 µM | TGI [5]: > 100 µM | GI50 [6]: > 100 µM | TGI [6]: > 100 µM | GI50 [7]: > 100 µM | TGI [7]: > 100 µM | GI50 [8]: > 100 µM | TGI [8]: > 100 µM | GI50 [9]: > 100 µM | TGI [9]: > 100 µM

COc1ccc(/C=N/N=C(\N)NO)cc1OC
TGI [1]: > 100 µM | TGI [2]: > 100 µM | TGI [3]: > 100 µM | TGI [4]: > 100 µM | TGI [5]: > 100 µM | TGI [6]: > 100 µM | TGI [7]: > 100 µM | TGI [8]: > 100 µM | TGI [9]: > 100 µM

COc1ccc2[nH]c(-c3ccccn3)cc(=O)c2c1
TGI [1]: > 100 µM | TGI [2]: > 100 µM | TGI [3]: > 100 µM | TGI [5]: > 100 µM | TGI [6]: 88 µM | TGI [8]: > 100 µM | TGI [9]: > 100 µM

O=C1NC(=S)NC(=O)C1=Cc1cc2c(cc1[N+](=O)[O-])OCO2
TGI [1]: > 100 µM | TGI [2]: > 100 µM | TGI [3]: > 100 µM | TGI [4]: > 100 µM | TGI [5]: > 100 µM | TGI [6]: > 100 µM | TGI [7]: > 100 µM | TGI [8]: > 100 µM | TGI [9]: > 100 µM

Cc1cccc(-c2nc3c(C(=O)NCCN(C)C)cccc3[nH]2)c1
TGI [1]: 3.2 µM | TGI [2]: 3.46 µM | TGI [3]: 3.64 µM | TGI [4]: 3.26 µM | TGI [5]: 4 µM | TGI [6]: 3.73 µM | TGI [7]: 2.2 µM | TGI [8]: 7.68 µM | TGI [9]: 1.91 µM

CC(=O)CCCCCCCCCCCC[C@@H]1CC[C@H](C)[C@H](O)N1
TGI [2]: > 100 µM | TGI [4]: > 100 µM | TGI [5]: > 100 µM | TGI [6]: > 100 µM | TGI [7]: > 100 µM | TGI [8]: > 100 µM | TGI [9]: > 100 µM

CCCCCCCCCCC/C(=N/O)c1ccc(O)c2ncccc12
TGI [2]: 17.5 µM | TGI [3]: 19.2 µM | TGI [4]: 5.86 µM | TGI [5]: > 100 µM | TGI [6]: 13.2 µM | TGI [8]: > 100 µM | TGI [9]: > 100 µM

O=C1C(Cl)C(c2cccc(O)c2)N1n1cnc2ccccc2c1=O (stereo not given)
TGI [1]: > 100 µM | TGI [2]: > 100 µM | TGI [3]: > 100 µM | TGI [4]: > 100 µM | TGI [6]: > 100 µM | TGI [7]: > 100 µM | TGI [8]: > 100 µM | TGI [9]: > 100 µM

Cc1c(/C=N/NS(=O)(=O)c2ccccc2)no[n+]1[O-]
TGI [1]: > 100 µM | TGI [3]: > 100 µM | TGI [4]: > 100 µM | TGI [5]: > 100 µM | TGI [7]: > 100 µM | TGI [8]: > 100 µM | TGI [9]: > 100 µM

CCCCn1c2cc(OCc3cn(-c4ccc(Cl)cc4)nn3)ccc2c2ccnc(C)c21
GI50 [10]: 4.3 µM | TGI [10]: 15 µM | GI50 [1]: 8.16 µM | TGI [1]: > 33.3 µM | GI50 [3]: 5.95 µM | TGI [3]: 25.5 µM | GI50 [4]: 7.82 µM | TGI [4]: 22.5 µM | GI50 [5]: 10.1 µM | TGI [5]: > 33.3 µM | GI50 [6]: 5.09 µM | TGI [6]: 13.1 µM | GI50 [7]: 6.74 µM | TGI [7]: > 33.3 µM | GI50 [8]: 14.1 µM | TGI [8]: > 33.3 µM | GI50 [9]: 11 µM | TGI [9]: > 33.3 µM

[N-]=[N+]=NC(c1cn(C2CC(O)C(CO)O2)c(=O)[nH]c1=O)C(Br)I (stereo not given)
TGI [1]: > 100 µM | TGI [2]: > 100 µM | TGI [4]: > 100 µM | TGI [5]: > 100 µM | TGI [6]: > 100 µM | TGI [7]: > 100 µM | TGI [8]: > 100 µM | TGI [9]: > 100 µM

COc1ccc(C=C2C(=O)OC(C)(C)OC2=O)cc1OC
TGI [1]: > 100 µM | TGI [2]: > 100 µM | TGI [3]: > 100 µM | TGI [4]: > 100 µM | TGI [5]: > 100 µM | TGI [6]: > 100 µM | TGI [7]: > 100 µM | TGI [8]: > 100 µM | TGI [9]: > 100 µM

Cc1ccccc1-c1c(N)nc(NC#N)nc1C(=O)Nc1ccccc1
TGI [1]: > 100 µM | TGI [2]: > 100 µM | TGI [3]: > 100 µM | TGI [4]: > 100 µM | TGI [5]: > 100 µM | TGI [6]: > 100 µM | TGI [7]: > 100 µM | TGI [8]: > 100 µM | TGI [9]: > 100 µM

CCN1C2=NC(=O)N(C)C(=O)C2(Cl)C(C(SC)S(=O)(=O)c2ccc(C)cc2)c2ccccc21 (stereo not given)
TGI [1]: > 100 µM | TGI [2]: > 100 µM | TGI [3]: 58.9 µM | TGI [4]: > 100 µM | TGI [6]: 53.7 µM | TGI [8]: > 100 µM | TGI [9]: > 100 µM

[Cl][Bi]([O]c1ccccn1)[O]c1ccccn1
GI50 [1]: > 100 µM | TGI [1]: > 100 µM | GI50 [3]: > 100 µM | TGI [3]: > 100 µM | GI50 [4]: > 100 µM | TGI [4]: > 100 µM | GI50 [5]: > 100 µM | TGI [5]: > 100 µM | GI50 [6]: > 100 µM | TGI [6]: > 100 µM | GI50 [7]: > 100 µM | TGI [7]: > 100 µM | GI50 [8]: > 100 µM | TGI [8]: > 100 µM | GI50 [9]: > 100 µM | TGI [9]: > 100 µM
